Patent US20130005588A1, “METHOD FOR DETERMINING SUBSTANCE NON-TOXICITY” (priority 2010, published 2013)
Like-named read-outs stand apart in the source and are kept apart here. Residues, ends and D or L forms follow the SMILES beside them.

Tests used:
[1] = test system: rat 3-D primary aggregating brain cell cultures; assay: Gene expression (mRNA of nestin, NF-200, S100β, MBP) by quantitative real-time PCR in aggregating brain cell cultures exposed to potential DNT chemicals; format: cell-based
Protocol: (§1) Generally one batch of Rat primary aggregating brain cell cultures aggregates were prepared every month. […] The endpoints applied to study processes of neurodevelopment include quantitative real-time PCR, Western blot analysis and mass spectrometry based metabolomics.
Aggregate cultures were maintained for 35 days in vitro (DIV). Samples were taken at DIV 1, 7, 14, 21, 28, 35 and mRNA was isolated, purified and quantified by RT-PCR.
The expression of the following genes was quantified; nestin expressed in neural precurser cells, neurofilament-200 (NF-200) expressed in neurons, S100β expressed in astrocytes and myelin basic protein (MBP) expressed in oligodendrocytes.
Aggregating brain cell cultures were exposed to potential DNT chemicals during both early (day in vitro 7-14) and late developmental stages (day in vitro […]). Chemicals were dissolved in water or DMSO depending on their chemical properties. Control cells received the vehicle without the DNT chemical.

[2] = test system: primary rat aggregating brain cell cultures; format: cell-based
Protocol: as §1
Cellular extracts (control and treated cultures) were prepared as described. The samples were used to establish an LC-MS method for the analysis of metabolites. […] Significant pertubations in metabolite levels were determined by principal component analysis and metabolites were identified by a Metlin metabolite database search using their retention time and accurate mass. Examples of metabolites that were perturbed by lead chloride and TCE treatment in the neuronal cell model and could be linked to biological pathways are provided in Table 3.

[3] = astrocytic marker, exposure DIV 7-14 or 7-21, real-time PCR
[4] = nestin, NF-200, S100β, MBP, exposure DIV 7-14 or 7-21
[5] = neural precursor marker, exposure DIV 7-14 or 7-21, real-time PCR
[6] = neuronal marker, exposure DIV 7-14 or 7-21, real-time PCR
[7] = oligodendrocyte marker, exposure DIV 7-14 or 7-21, real-time PCR

SMILES: COC(=O)[C@H](Cc1ccccc1)NC(=O)[C@@H](N)CC(=O)O [Aspartame] (HELM PEPTIDE1{D.F.[CO[*:1]]}$$$$V2.0)
- The lowest concentration inducing changes in mRNA levels of S100β [1, 3]: —^1
- significant effects on quantified gene expression levels (one or several cell type related genes) [1, 4]: did not induce any significant effects
- The lowest concentration inducing changes in mRNA levels of nestin [1, 5]: —^1
- The lowest concentration inducing changes in mRNA levels of NF-200 [1, 6]: —^1
- The lowest concentration inducing changes in mRNA levels of MBP [1, 7]: —^1

SMILES: CCOP(=S)(OCC)Oc1nc(Cl)c(Cl)cc1Cl [Chlorpyrifos]
- The lowest concentration inducing changes in mRNA levels of S100β [1, 3]: 10 µM
- significant effects on quantified gene expression levels (one or several cell type related genes) [1, 4]: significantly affected
- The lowest concentration inducing changes in mRNA levels of nestin [1, 5]: 0.1 µM
- The lowest concentration inducing changes in mRNA levels of NF-200 [1, 6]: 0.1 µM
- The lowest concentration inducing changes in mRNA levels of MBP [1, 7]: 1 µM

SMILES: S=C([S-])NCCNC(=S)[S-].[Mn+2] [Maneb]
- The lowest concentration inducing changes in mRNA levels of S100β [1, 3]: —^1
- The lowest concentration inducing changes in mRNA levels of S100β ([1]; astrocytic marker, exposure DIV 7-14 or 7-21, real-time PCR, listed as maneb): no observed effects
- significant effects on quantified gene expression levels (one or several cell type related genes) [1, 4]: significantly affected
- The lowest concentration inducing changes in mRNA levels of nestin [1, 5]: 1 µM
- The lowest concentration inducing changes in mRNA levels of NF-200 [1, 6]: 0.1 µM
- The lowest concentration inducing changes in mRNA levels of MBP [1, 7]: 0.1 µM

SMILES: [Cl][Pb][Cl] [Lead Chloride]
- The lowest concentration inducing changes in mRNA levels of S100β [1, 3]: 10 µM
- significant effects on quantified gene expression levels (one or several cell type related genes) [1, 4]: significantly affected
- The lowest concentration inducing changes in mRNA levels of nestin [1, 5]: 10 µM
- The lowest concentration inducing changes in mRNA levels of NF-200 [1, 6]: 0.1 µM
- The lowest concentration inducing changes in mRNA levels of MBP [1, 7]: 0.1 µM
- alteration of metabolites in the aggregate samples ([2]; LC-MS, intra-cellular extracts, treatment 7 to 21 DIV, principal component analysis): altered hundreds of metabolites

SMILES: ClC=C(Cl)Cl [Trichloroethylene]
- significant effects on quantified gene expression levels (one or several cell type related genes) [1]: significantly affected
- The lowest concentration inducing changes in mRNA levels of NF-200 ([1]; rat): 0.1 µM
- The lowest concentration inducing changes in mRNA levels of S100β ([1]; rat): —^1
- The lowest concentration inducing changes in mRNA levels of nestin ([1]; rat): 50 µM
- alteration of metabolites in the aggregate samples [2]: altered hundreds of metabolites

SMILES: CC(C)(c1ccc(O)cc1)c1ccc(O)cc1 [Bisphenol A]
- The lowest concentration inducing changes in mRNA levels of S100β [1, 3]: —^1
- significant effects on quantified gene expression levels (one or several cell type related genes) [1, 4]: significantly affected
- The lowest concentration inducing changes in mRNA levels of nestin [1, 5]: —^1
- The lowest concentration inducing changes in mRNA levels of NF-200 [1, 6]: 100 µM
- The lowest concentration inducing changes in mRNA levels of MBP [1, 7]: —^1

SMILES: Nc1nnc(-c2cccc(Cl)c2Cl)c(N)n1 [Lamotrigine]
- significant effects on quantified gene expression levels (one or several cell type related genes) [1]: did not induce any significant effects
- The lowest concentration inducing changes in mRNA levels of NF-200 ([1]; rat): —^1
- The lowest concentration inducing changes in mRNA levels of S100β ([1]; rat): —^1
- The lowest concentration inducing changes in mRNA levels of nestin ([1]; rat): —^1

SMILES: CCCC(CCC)C(=O)O [Valproic acid]
- significant effects on quantified gene expression levels (one or several cell type related genes) [1]: significantly affected
- The lowest concentration inducing changes in mRNA levels of MBP ([1]; rat): 100 µM
- The lowest concentration inducing changes in mRNA levels of NF-200 ([1]; rat): —^1
- The lowest concentration inducing changes in mRNA levels of S100β ([1]; rat): 500 µM
- The lowest concentration inducing changes in mRNA levels of nestin ([1]; rat): —^1

SMILES: Cl[C@H]1[C@H](Cl)[C@@H](Cl)[C@@H](Cl)[C@H](Cl)[C@H]1Cl [Lindane]
- The lowest concentration inducing changes in mRNA levels of S100β [1, 3]: —^1
- significant effects on quantified gene expression levels (one or several cell type related genes) [1, 4]: significantly affected
- The lowest concentration inducing changes in mRNA levels of nestin [1, 5]: 0.1 µM
- The lowest concentration inducing changes in mRNA levels of NF-200 [1, 6]: 0.1 µM
- The lowest concentration inducing changes in mRNA levels of MBP [1, 7]: 1 µM

SMILES: [Cl][Cd][Cl] [Cadmium Chloride]
- The lowest concentration inducing changes in mRNA levels of S100β [1, 3]: 1 µM
- significant effects on quantified gene expression levels (one or several cell type related genes) [1, 4]: significantly affected
- The lowest concentration inducing changes in mRNA levels of nestin [1, 5]: 1 µM
- The lowest concentration inducing changes in mRNA levels of NF-200 [1, 6]: 1 µM
- The lowest concentration inducing changes in mRNA levels of MBP [1, 7]: 10 µM

SMILES: CNC(=O)Oc1cccc2ccccc12 [Carbaryl]
- The lowest concentration inducing changes in mRNA levels of S100β [1, 3]: —^1
- The lowest concentration inducing changes in mRNA levels of nestin [1, 5]: 0.1 µM
- The lowest concentration inducing changes in mRNA levels of NF-200 [1, 6]: 0.1 µM
- The lowest concentration inducing changes in mRNA levels of MBP [1, 7]: 0.1 µM
